Laboratory results as given in patent US20220228164A1, “ENGINEERED ANTIGEN PRESENTING CELLS” (Neogene Therapeutics B.V., priority 2021, published 2022).

Assays:
Type in all cases: cell-based, human
[1] = system: TCR-KO Jurkat T cells expressing the GCN1L1 TCR; assay: Peptide electroporation of BCL-6/BCL-xL-CD40L immortalized B cells, co-culture with TCR Jurkat T cells, CD69 (Examples 11, 12); settings: for presentation of the GCN1L1 antigen after peptide electroporation (CD69+ of live cells): electroporated into BCL-6/BCL-xL-CD40L immortalized B cells
Excerpt: Immortalized primary human B cells that are electroporated with a polypeptide of a uniform length (25mer) will be efficiently processed and present T cell epitopes encoded within the polypeptide via the MHC class I pathway and activate T cells expressing an MHC class I restricted TCR specific for the T cell epitope encoded within the polypeptide. BCL-6/BCL-xL-CD40L immortalized B cells from a healthy donor were electroporated with short (10mer) (ALLETPSLLL, SEQ ID NO: 5) or long (25mer) ([…], SEQ ID NO: 6) peptides encoding the GCN1L1 mutated peptide or CMV mutated long peptide ([…], SEQ ID NO: 7), using a method known to the skilled artisan. Briefly, for each sample, 0.2e6 B cells were harvested and washed with PBS. After removal of all PBS, the dry pellet was resuspended in electroporation buffer (SF-buffer, Lonza) at a concentration of 25e6 cells per mL. Of this mixture, 20 μL per sample was added to a 96 well tissue-culture-plate that contains the appropriate amount of peptide resulting in the indicated peptide concentration. Cells were transferred to a 16-well electroporation strip (Lonza) and subsequently electroporated using the DN100 program (Lonza Amaxa). Post-electroporation, cells were rested for 10 minutes at 37° C. and transferred to a 96 well round bottom tissue-culture plate in a final volume of 200 μL of Complete B cell Medium (RPMI1640 medium supplemented with 10% (v/v) Fetal Calf Serum (FCS), 1% (v/v) Penicillin/Streptomycin (P/S), 1% (v/v) Sodium Pyruvate, 1% (v/v) Non-essential amino acids, 1% (v/v) Glutamax, 50 nM 2-Mercaptoethanol) and incubated for 0, 2, 4, 5, 6, 10 or 24 hrs at 37° C. The resting period post peptide electroporation allows for exogenous loading of the peptide onto the target cells in a parallel experimental condition. […] After 20 hours, cells were stained with antibodies directed against CD8 and CD69 and specific recognition by TCR td T cells was measured by CD69 upregulation on a flow cytometer. […]

[2] = system: TCR-KO Jurkat T cells expressing the CMV1 TCR; assay: as above; settings: 25mer electroporated; MHC class I restricted TCR
Excerpt: Immortalized primary human B cells that are electroporated with a polypeptide of a uniform length (25mer) will be efficiently processed and present T cell epitopes encoded within the polypeptide via the MHC class I pathway and activate T cells expressing an MHC class I restricted TCR specific for the T cell epitope encoded within the polypeptide. BCL-6/BCL-xL-CD40L immortalized B cells from a healthy donor were electroporated with short (10mer) (ALLETPSLLL, SEQ ID NO: 5) or long (25mer) ([…], SEQ ID NO: 6) peptides encoding the GCN1L1 mutated peptide or CMV mutated long peptide ([…], SEQ ID NO: 7), using a method known to the skilled artisan. Briefly, for each sample, 0.2e6 B cells were harvested and washed with PBS. After removal of all PBS, the dry pellet was resuspended in electroporation buffer (SF-buffer, Lonza) at a concentration of 25e6 cells per mL. […] After 20 hours, cells were stained with antibodies directed against CD8 and CD69 and specific recognition by TCR td T cells was measured by CD69 upregulation on a flow cytometer.
A CMV epitope was electroporated or loaded onto BCL-6/BCL-xL/CD40L immortalized B cells. T cell activation was measured for various concentrations of peptide after 6, 10 or 24 hours of post-electroporation resting (FIG. 17A) or were loaded with peptide (FIG. 17B) for similar time-points. […]

[3] = system: Jurkat T cells expressing the class II restricted MAGE-A3 TCR; assay: Peptide electroporation of BCL-6/BCL-xL-CD40L immortalized B cells, co-culture with TCR Jurkat T cells, CD69 (Example 12); settings: 25mer electroporated; MHC class II restricted TCR

ALLETPSLLL [short GCN1L1 peptide, short (10mer) peptide encoding the GCN1L1 mutated peptide]
presentation of the GCN1L1 antigen after peptide electroporation (CD69+ of live cells) [1]: efficient presentation

WQAGILARNLVPMVATVQGQNLKYQ [long CMV1 peptide, CMV long (25mer) peptide]
post-electroporation rest with which the peptide elicits a response (% CD69) [2]: ≥ 2 h

FSWNVKAALLETPSLLLAKVGIALK [long GCN1L1 peptide, long (25mer) peptide encoding the GCN1L1 mutated peptide]
post-electroporation rest with which the peptide elicits a response (% CD69) ([1]; 25mer electroporated, MHC class I restricted TCR): ≥ 2 h
presentation of the GCN1L1 antigen after peptide electroporation (CD69+ of live cells) [1]: efficient presentation

ILGDPKKLLTQHFVQENYLEYRQVP [MAGEA3]
post-electroporation rest with which the peptide elicits a response (% CD69) [3]: ≥ 2 h
